Source: patent US11608338B2, “Imidazolonylquinolines and the use thereof as ATM kinase inhibitors” (priority 2015, dated 2023)

Experiments:
Assay type in all cases: biochemical
[1] = biological target: PI3K p110α/p85α (human) (Homo sapiens (Human), UniProt P42336); assay: PI3K p110α/p85α (human), non-radioactive assay (HTRF); details: ATM versus PI3Kalpha
Experimental: PI3K p110α/p85α (Human), Non-Radioactive Assay
(§1) PI3K p110α/p85α (human) was incubated in an assay buffer comprising 10 μM phosphatidylinositol 4,5-bisphosphate and MgATP (concentration as necessary). The reaction was initiated by addition of MgATP solution. After incubation at room temperature for 40 minutes, the reaction was stopped by addition of a solution consisting of EDTA and biotinylated phosphatidylinositol 3,4,5-trisphosphate. Finally, the detection buffer, consisting of a europium-labelled anti-GST monoclonal antibody, a GST-labelled GRP1 PH domain and streptavidin allophycocyanin, was added. The plate was read out via homogeneous time-resolved fluorescence (HTRF) and the corresponding signals were evaluated via the formula HTRF=10000×(Em665 nm/Em620 nm).

[2] = biological target: PI3K (p120γ) (human) (Homo sapiens (Human), UniProt P48736); assay: PI3K (p120γ) (human), non-radioactive assay (HTRF); details: ATM versus PI3Kgamma
Sequence of PI3K (p120γ) (human) (P48736 whole entry): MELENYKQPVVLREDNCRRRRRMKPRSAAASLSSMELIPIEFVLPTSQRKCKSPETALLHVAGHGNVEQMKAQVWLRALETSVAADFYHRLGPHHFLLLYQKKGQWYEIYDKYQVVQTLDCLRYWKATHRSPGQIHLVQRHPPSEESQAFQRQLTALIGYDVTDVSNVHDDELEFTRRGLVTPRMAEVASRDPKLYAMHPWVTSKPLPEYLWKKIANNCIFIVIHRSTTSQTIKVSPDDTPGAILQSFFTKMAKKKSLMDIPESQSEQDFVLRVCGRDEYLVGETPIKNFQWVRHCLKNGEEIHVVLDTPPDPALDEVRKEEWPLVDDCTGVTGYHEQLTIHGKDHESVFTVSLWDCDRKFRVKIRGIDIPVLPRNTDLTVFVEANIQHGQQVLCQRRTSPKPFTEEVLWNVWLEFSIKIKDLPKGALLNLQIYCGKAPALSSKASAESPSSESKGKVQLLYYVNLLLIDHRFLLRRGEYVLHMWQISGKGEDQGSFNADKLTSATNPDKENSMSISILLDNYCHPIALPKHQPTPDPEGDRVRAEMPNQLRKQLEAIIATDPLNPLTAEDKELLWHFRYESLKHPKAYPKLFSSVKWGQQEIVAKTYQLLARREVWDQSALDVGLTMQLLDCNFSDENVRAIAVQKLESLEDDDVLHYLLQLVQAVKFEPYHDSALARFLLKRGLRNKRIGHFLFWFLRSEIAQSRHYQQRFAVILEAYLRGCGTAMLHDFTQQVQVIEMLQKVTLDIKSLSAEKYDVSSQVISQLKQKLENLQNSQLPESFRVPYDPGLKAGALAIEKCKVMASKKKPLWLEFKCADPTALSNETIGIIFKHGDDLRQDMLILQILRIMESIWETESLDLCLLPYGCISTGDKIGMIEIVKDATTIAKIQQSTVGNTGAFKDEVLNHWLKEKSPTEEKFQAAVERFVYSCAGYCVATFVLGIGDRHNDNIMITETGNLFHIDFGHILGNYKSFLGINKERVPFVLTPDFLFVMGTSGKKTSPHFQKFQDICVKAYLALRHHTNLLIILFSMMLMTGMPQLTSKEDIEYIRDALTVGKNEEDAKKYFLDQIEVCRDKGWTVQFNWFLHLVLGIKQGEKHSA
Experimental: PI3K (p120γ) (Human), Non-Radioactive Assay
as §1, with “(p120γ)” for “p110α/p85α”, “After an” for “After”, “incubation time of 30 min” for “incubation”, “temperature,” for “temperature for 40 minutes,”, “nm). • MgATP=magnesium 5′-O-[hydroxy({[(hydroxyphosphinato)oxy]phosphinato}oxy)phosphoryl]adenosine • MgCl2=magnesium dichloride • EGTA=ethylene glycol bis(aminoethyl ether) N,N,N′,N′-tetraacetic acid • Tween 20=polysorbate 20 Medicament/Pharmaceutical Composition” for “nm).”

[3] = biological target: PI3K p110δ/p85α (human) (Homo sapiens (Human), UniProt O00329); assay: PI3K p110δ/p85α (human), non-radioactive assay (HTRF); details: ATM versus PI3Kdelta
Sequence of PI3K p110δ/p85α (human) (O00329 whole entry): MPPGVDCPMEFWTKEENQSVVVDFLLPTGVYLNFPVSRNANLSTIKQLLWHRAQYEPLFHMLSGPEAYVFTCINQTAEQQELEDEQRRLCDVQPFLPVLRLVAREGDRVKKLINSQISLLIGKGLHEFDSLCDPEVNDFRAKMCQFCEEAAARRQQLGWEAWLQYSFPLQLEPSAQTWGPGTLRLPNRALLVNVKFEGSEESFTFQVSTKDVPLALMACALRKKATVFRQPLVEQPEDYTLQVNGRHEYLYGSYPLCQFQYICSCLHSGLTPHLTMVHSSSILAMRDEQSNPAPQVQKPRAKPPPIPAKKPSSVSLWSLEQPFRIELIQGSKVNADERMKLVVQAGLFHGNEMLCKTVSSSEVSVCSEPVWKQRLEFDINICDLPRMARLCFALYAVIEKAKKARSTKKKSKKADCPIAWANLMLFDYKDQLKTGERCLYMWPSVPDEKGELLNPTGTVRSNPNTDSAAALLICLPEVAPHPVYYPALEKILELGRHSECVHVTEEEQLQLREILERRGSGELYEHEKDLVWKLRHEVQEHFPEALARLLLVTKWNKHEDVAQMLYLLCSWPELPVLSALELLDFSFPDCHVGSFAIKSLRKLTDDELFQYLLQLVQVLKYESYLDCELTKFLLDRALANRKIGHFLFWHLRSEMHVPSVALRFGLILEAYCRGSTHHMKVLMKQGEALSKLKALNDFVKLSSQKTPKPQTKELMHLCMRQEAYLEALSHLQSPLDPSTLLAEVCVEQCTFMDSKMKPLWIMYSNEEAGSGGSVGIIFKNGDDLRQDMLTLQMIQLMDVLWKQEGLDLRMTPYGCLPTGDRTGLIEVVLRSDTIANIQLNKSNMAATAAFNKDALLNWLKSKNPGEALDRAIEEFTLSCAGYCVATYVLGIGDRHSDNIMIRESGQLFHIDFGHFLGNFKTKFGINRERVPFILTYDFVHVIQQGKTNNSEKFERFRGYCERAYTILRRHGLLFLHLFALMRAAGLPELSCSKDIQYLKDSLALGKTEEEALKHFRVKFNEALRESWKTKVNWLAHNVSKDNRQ
Sequence of PI3K p110δ/p85α (human) (P27986 whole entry partner): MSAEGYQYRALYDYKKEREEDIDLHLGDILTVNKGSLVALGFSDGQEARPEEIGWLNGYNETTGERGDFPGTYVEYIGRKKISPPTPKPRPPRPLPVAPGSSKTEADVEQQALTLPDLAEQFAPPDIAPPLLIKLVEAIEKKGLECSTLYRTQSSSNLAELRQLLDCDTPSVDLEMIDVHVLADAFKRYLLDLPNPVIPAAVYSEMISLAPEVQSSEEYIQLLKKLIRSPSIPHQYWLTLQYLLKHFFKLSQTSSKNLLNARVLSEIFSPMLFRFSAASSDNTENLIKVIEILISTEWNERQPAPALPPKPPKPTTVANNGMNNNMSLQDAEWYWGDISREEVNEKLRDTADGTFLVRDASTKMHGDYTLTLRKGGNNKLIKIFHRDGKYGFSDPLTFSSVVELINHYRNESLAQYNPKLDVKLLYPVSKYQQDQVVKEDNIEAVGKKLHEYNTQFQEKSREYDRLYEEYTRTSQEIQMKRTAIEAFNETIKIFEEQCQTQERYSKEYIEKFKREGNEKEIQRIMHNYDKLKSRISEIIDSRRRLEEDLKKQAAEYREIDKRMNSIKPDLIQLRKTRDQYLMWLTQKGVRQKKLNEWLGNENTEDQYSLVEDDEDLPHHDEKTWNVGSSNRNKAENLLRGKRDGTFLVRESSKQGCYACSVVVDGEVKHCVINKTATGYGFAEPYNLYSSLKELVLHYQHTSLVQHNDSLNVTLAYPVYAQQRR
Experimental: PI3K p110δ/p85α (Human), Non-Radioactive Assay
as §1, with “p110δ/p85α” for “p110α/p85α”, “After an” for “After”, “incubation time of 30 min” for “incubation”, “temperature,” for “temperature for 40 minutes,”

[4] = biological target: mTOR (human) (Homo sapiens (Human), UniProt P42345); assay: mTOR (human) radiometric kinase assay; details: ATM versus mTOR
Experimental: Furthermore, the effect, in particular inhibition, of other kinases and thus the selectivity of the compounds according to the invention can be determined with the aid of the following assay:
mTOR (human) was incubated with 50 mM HEPES pH 7.5, 1 mM EGTA, 0.01% Tween 20, 2 mg/ml of the substrate, 3 mM MnCl2 and [γ-^33P-ATP] (specific activity approximately 500 cpm/pmol, concentration as necessary). The reaction was initiated by addition of MgATP solution. After incubation at room temperature for 40 minutes, the reaction was stopped by addition of 3% phosphoric acid. 10 μl of the reaction solution were then transferred dropwise onto a P30 filtermat and washed three times for 5 min in 75 mM phosphoric acid and once in methanol, dried and evaluated by means of liquid scintillation counting.

[5] = biological target: PI3K p110β/p85α (human) (Homo sapiens (Human), UniProt P42338); assay: PI3K p110β/p85α (human), non-radioactive assay (HTRF); details: ATM versus PI3Kbeta
Sequence of PI3K p110β/p85α (human) (P42338 whole entry): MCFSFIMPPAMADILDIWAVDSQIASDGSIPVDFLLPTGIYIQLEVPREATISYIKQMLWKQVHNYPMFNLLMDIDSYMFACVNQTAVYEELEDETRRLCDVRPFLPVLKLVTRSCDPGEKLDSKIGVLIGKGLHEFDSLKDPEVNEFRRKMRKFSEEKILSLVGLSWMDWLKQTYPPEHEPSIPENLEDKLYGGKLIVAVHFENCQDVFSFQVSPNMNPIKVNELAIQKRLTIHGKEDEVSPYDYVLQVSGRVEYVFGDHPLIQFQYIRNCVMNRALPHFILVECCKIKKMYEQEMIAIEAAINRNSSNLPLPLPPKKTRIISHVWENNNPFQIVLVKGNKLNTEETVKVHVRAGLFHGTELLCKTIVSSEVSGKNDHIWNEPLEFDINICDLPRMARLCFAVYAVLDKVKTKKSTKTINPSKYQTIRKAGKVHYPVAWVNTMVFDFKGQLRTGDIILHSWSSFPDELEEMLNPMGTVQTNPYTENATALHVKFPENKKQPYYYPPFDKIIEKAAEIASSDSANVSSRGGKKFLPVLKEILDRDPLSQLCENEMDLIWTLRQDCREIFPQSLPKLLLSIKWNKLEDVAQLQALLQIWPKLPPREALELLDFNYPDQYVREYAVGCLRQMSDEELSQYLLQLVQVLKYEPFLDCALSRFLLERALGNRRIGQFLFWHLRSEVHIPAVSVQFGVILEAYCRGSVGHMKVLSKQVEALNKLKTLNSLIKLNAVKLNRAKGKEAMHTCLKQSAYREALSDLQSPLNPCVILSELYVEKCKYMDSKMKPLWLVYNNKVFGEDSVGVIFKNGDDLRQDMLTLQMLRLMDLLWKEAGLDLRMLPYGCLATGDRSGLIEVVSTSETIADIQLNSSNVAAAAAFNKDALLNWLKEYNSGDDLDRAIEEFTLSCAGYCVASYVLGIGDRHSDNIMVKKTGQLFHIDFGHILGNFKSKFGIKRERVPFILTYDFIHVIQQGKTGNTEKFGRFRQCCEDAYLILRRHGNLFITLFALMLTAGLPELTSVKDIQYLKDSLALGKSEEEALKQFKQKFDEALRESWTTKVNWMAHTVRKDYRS
Sequence of PI3K p110β/p85α (human) (P27986 whole entry partner): as the sequence (P27986 whole entry partner) above
Experimental: PI3K p110β/p85α (Human), Non-Radioactive Assay
as §1, with “p110β/p85α” for “p110α/p85α”, “After an” for “After”, “incubation time of 30 min” for “incubation”, “temperature,” for “temperature for 40 minutes,”

Sequence of PI3K p110α/p85α (human) (P42336 whole entry): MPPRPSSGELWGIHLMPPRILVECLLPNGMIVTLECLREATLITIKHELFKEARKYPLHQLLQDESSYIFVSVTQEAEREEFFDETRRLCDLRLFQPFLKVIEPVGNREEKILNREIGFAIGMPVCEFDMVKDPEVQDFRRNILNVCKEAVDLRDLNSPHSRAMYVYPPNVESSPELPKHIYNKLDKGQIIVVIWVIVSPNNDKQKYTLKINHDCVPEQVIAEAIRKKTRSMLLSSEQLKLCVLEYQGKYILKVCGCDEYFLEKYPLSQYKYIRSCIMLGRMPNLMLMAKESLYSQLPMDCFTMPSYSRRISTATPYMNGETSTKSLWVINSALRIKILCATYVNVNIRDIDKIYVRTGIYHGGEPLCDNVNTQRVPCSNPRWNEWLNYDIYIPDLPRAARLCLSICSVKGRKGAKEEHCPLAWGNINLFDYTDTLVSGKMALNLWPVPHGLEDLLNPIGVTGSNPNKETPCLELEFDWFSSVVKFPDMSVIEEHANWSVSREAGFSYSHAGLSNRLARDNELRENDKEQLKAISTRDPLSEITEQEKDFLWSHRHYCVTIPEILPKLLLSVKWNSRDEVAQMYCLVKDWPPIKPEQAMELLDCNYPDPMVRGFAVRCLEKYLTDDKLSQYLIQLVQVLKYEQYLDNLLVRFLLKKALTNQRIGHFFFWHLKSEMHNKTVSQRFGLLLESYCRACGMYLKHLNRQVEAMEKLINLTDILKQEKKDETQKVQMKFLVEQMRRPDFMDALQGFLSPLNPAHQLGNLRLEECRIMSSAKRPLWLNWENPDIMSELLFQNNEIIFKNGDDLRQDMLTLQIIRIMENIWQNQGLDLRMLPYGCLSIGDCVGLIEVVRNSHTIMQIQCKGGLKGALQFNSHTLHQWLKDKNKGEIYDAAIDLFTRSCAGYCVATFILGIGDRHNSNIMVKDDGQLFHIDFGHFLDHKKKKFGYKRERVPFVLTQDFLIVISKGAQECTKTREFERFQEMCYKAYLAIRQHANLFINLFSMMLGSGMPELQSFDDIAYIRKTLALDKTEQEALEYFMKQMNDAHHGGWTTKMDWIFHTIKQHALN
Sequence of PI3K p110α/p85α (human) (P27986 whole entry partner): as the sequence (P27986 whole entry partner) above

ratio of IC50 (ATM) and IC50 (PI3Kalpha), selectivity with respect to PI3Kalpha [1]	ratio of IC50 (ATM) and IC50 (PI3Kgamma), selectivity with respect to PI3Kgamma [2]	ratio of IC50 (ATM) and IC50 (PI3Kdelta), selectivity with respect to PI3Kdelta [3]	ratio IC50 (ATM):IC50 (PI3Kbeta), selectivity with respect to PI3Kbeta [5]	SMILES	ratio IC50 (ATM):IC50 (mTOR), selectivity with respect to mTOR [4]
at least 2000 times	at least 2000 times	at least 2000 times	–	COCCOc1cnc(-n2c(=O)n(C)c3cnc4cc(OC)c(-c5cnn(C)c5)cc4c32)c(F)c1 [Example 66, 1-[3-Fluoro-5-(2-methoxy-ethoxy)-2-pyridyl]-7-methoxy-3-methyl-8-(1-methylpyrazol-4-yl)imidazo-[4,5-c]quinolin-2-one]	–
at least 2000 times	at least 2000 times	at least 2000 times	–	COc1cc2ncc3c(c2cc1-c1cnn(C)c1)n(-c1ncc(OCCO)cc1F)c(=O)n3C [Example 67, 1-[3-Fluoro-5-(2-hydroxy-ethoxy)-2-pyridyl]-7-methoxy-3-methyl-8-(1-methylpyrazol-4-yl)imidazo-[4,5-c]quinolin-2-one]	–
at least 2000 times	at least 2000 times	at least 2000 times	–	COc1cc2ncc3c(c2cc1-c1c[nH]nc1C)n(-c1ncc(F)cc1F)c(=O)n3C [Example 117, 1-(3,5-Difluoropyridin-2-yl)-7-methoxy-3-methyl-8-(3-methyl-1H-pyrazol-4-yl)-1,3-dihydroimidazo[4,5-c]-quinolin-2-one]	–
at least 2000 times	at least 2000 times	at least 2000 times	–	COc1cc2ncc3c(c2cc1-c1cnn(C)c1)n(-c1cc2[nH]ccc2cn1)c(=O)n3C [Example 120, 7-Methoxy-3-methyl-8-(1-methyl-1H-pyrazol-4-yl)-1-(1H-pyrrolo[3,2-c]pyridin-6-yl)-1,3-dihydroimidazo-[4,5-c]quinolin-2-one]	at least 2000 times
–	–	–	–	COc1cc2ncc3c(c2cc1-c1cc[nH]n1)n(-c1cn(C)nc1C)c(=O)n3C [Example 121, 1-(1,3-Dimethyl-1H-pyrazol-4-yl)-7-methoxy-3-methyl-8-(1H-pyrazol-3-yl)-1,3-dihydroimidazo[4,5-c]-quinolin-2-one]	at least 2000 times
at least 2000 times	at least 2000 times	at least 2000 times	–	COc1cc2ncc3c(c2cc1-c1cnn(C)c1)n(-c1ncc(N2CCNCC2)cc1F)c(=O)n3C [Example 123, 1-(3-Fluoro-5-piperazin-1-yl-pyridin-2-yl)-7-methoxy-3-methyl-8-(1-methyl-1H-pyrazol-4-yl)-1,3-dihydro-imidazo[4,5-c]quinolin-2-one]	–
–	–	–	at least 2000 times	COc1ccc(-c2cc3c(cc2OC)ncc2c3n(-c3c(F)cncc3OC)c(=O)n2C)cn1 [Example 137, 1-(3-Fluoro-5-methoxy-pyridin-4-yl)-7-methoxy-8-(6-methoxypyridin-3-yl)-3-methyl-1,3-dihydroimidazo-[4,5-c]quinolin-2-one]	–
–	–	–	–	CNC(=O)c1cnc(-n2c(=O)n(C)c3cnc4cc(OC)c(-c5cnn(C)c5)cc4c32)c(F)c1 [Example 138, 5-Fluoro-6-[7-methoxy-3-methyl-8-(1-methyl-1H-pyrazol-4-yl)-2-oxo-2,3-dihydroimidazo[4,5-c]-quinolin-1-yl]-N-methyl-nicotinamid]	at least 2000 times
–	–	–	–	COc1cc2ncc3c(c2cc1-c1cnn(C)c1)n(-c1cn(C)nc1F)c(=O)n3C [Example 141, 1-(3-Fluoro-1-methyl-1H-pyrazo1-4-yl)-7-methoxy-3-methyl-8-(1-methyl-1H-pyrazol-4-yl)-1,3-dihydro-imidazo[4,5-c]quinolin-2-one]	at least 2000 times
–	–	–	–	COc1cc2ncc3c(c2cc1-c1cn(C)nc1C)n(-c1c(F)cncc1OC(F)F)c(=O)n3C [Example 147, 1-(3-Difluoromethoxy-5-fluoropyridin-4-yl)-8-(1,3-dimethyl-1H-pyrazol-4-yl)-7-methoxy-3-methyl-1,3-dihydroimidazo[4,5-c]-quinolin-2-one]	at least 2000 times
–	–	–	–	CCc1cnccc1-n1c(=O)n(C)c2cnc3cc(OC)c(-c4cnn(CC)c4)cc3c21 [Example 157, 8-(1-Ethyl-1H-pyrazol-4-yl)-1-(3-ethylpyridin-4-yl)-7-methoxy-3-methyl-1,3-dihydroimidazo[4,5-c] quinolin-2-one]	at least 2000 times
at least 2000 times	at least 2000 times	at least 2000 times	–	COc1cc2ncc3c(c2cc1-c1cnn(C)c1)n(-c1ncc(OC2CNC2)cc1F)c(=O)n3C [Example 205, 1-[5-(Azetidin-3-yloxy)-3-fluoropyridin-2-yl]-7-methoxy-3-methyl-8-(1-methyl-1H-pyrazol-4-yl)-1,3-dihydroimidazo[4,5-c]-quinolin-2-one]	–

SMILES	ratio of IC50 (ATM) and IC50 (PI3Kalpha), selectivity with respect to PI3Kalpha [1]	ratio of IC50 (ATM) and IC50 (PI3Kgamma), selectivity with respect to PI3Kgamma [2]	ratio of IC50 (ATM) and IC50 (PI3Kdelta), selectivity with respect to PI3Kdelta [3]	ratio IC50 (ATM):IC50 (PI3Kbeta), selectivity with respect to PI3Kbeta [5]	ratio IC50 (ATM):IC50 (mTOR), selectivity with respect to mTOR [4]
COc1cc2ncc3c(c2cc1-c1cnn(C)c1)n(-c1ncc(OC(F)F)cc1F)c(=O)n3C [Example 114, 1-(5-Difluoromethoxy-3-fluoropyridin-2-yl)-7-methoxy-3-methyl-8-(1-methyl-1H-pyrazol-4-yl)-1,3-dihydroimidazo[4,5-c]-quinolin-2-one]	at least 2000 times	at least 2000 times	at least 2000 times	–	at least 2000 times
COc1cnc(-n2c(=O)n(C)c3cnc4cc(OC)c(-c5c[nH]nc5C)cc4c32)c(F)c1 [Example 122, 1-(3-Fluoro-5-methoxy-pyridin-2-yl)-7-methoxy-3-methyl-8-(3-methyl-1H-pyrazol-4-yl)-1,3-dihydro-imidazo[4,5-c]quinolin-2-one]	at least 2000 times	at least 2000 times	at least 2000 times	–	at least 2000 times
CCc1cncc(F)c1-n1c(=O)n(C)c2cnc3cc(OC)c(-c4cn(C)nn4)cc3c21 [Example 126, 1-(3-Ethyl-5-fluoropyridin-4-yl)-7-methoxy-3-methyl-8-(1-methyl-1H-1,2,3-triazol-4-yl)-1,3-dihydroimidazo-[4,5-c] quinolin-2-one]	at least 2000 times	at least 2000 times	at least 2000 times	–	at least 2000 times
